Reference: patent US5103013A, “Dithioketene derivatives, pharmaceutical compositions containing the same and uses thereof” (Yuhan Corporation, Ltd., priority 1988, dated 1992)

Key:
[1] = test system: serum alanine aminotransferase (ALT) increase induced by CCl4; test: Protective effect against acute hepatic damage induced by carbon tetrachloride (suppression of serum ALT increase); assay type: in vivo; settings: Mus musculus; mice, oral 50 mg/kg in 0.2% CMC-Na, 6 h before oral CCl4 (50 ul/kg); serum ALT 24 h after CCl4; read-out: Inhibitory (%) (protective effect of test compound against increase of serum ALT activity induced by CCl4)
Description: Carbon tetrachloride (CCl4) is a well-known hepatotoxic agent, thus widely used to produce experimental animal models for screening the potential drugs acting upon hepatic diseases. In this experiment test compounds were administered to mice prior to treatment with CCl4. 24 Hours after the CCl4 treatment, the animals were sacrificed and serum alanine aminotransferase (ALT) levels were determined. The hepatoprotective effect of a test compound was evaluated by the suppressive action against the increase of serum ALT induced by CCl4.
The experimental animals were divided into the normal, the CCl4 treated and the test compound treated groups. Each group consisted of 8 mice with body weight of 20-25 grams. The test compounds were suspended in 0.2% sodium carboxymethylcellulose (CMC--Na) solution and administered orally at the dose of 50 mg/125 ml/kg body weight. Only the vehicle 0.2% CMC--Na solution, was administered to the normal and to the CCl4 treated group instead of the test compound suspension.
6 Hours after the drug administration, the CCl4 solution in olive oil was administered orally to the CCl4 treated-group and the test compound treated group at the dose of 50 ul/25 ml olive oil/kg body weight. The normal group was administered with olive oil only at the same dose. 24 Hours after the CCl4 administration, blood samples were collected from the orbital sinus of the animals and the sera were monitored using an automatic blood analyzer (Gilford, SBA 300). The hepatoprotective effect of the test compounds was expressed by the suppressive percentage against the increase of serum ALT level induced by CCl4 calculated by the following formula; [formula]

[2] = test system: serum ALT increase induced by CCl4; test: Determination of 50% effective dose (ED50) against CCl4-induced serum ALT increase; assay type: in vivo; settings: Mus musculus; mice, oral 50, 25, 12.5 or 6.25 mg/kg, 6 h before CCl4; serum ALT 24 h after CCl4; estimated from dose-response curves; read-out: ED50 (50% effective dose of test compound)
Description: The various doses of test compounds were administered to mice, followed by the treatment with CCl4 after 6 hours. 24 Hours after the CCl4 treatment, the serum ALT level of the animals were determined. The hepatoprotective effect of the test compounds and the doses were plotted to form doseresponse curves, from which the ED50 doses of the test compounds were estimated.
The experimental animals were divided into the normal, the CCl4 treated and the test compound treated groups. Each group consisted of 8 mice with body weight of 20-25 grams. The test compounds were suspended in 0.2% CMC--Na solution and administered orally at a dose of 50 mg, 25 mg, 12.5 mg or 6.25 mg/125 ml/kg body weight. Only the vehicle, 0.2% CMC--Na solution, was administered to the normal and to the CCl4 treated group instead of the test compound suspension. 6 Hours later, the CCl4 solution in olive oil was administered orally to the CCl4 treated and the test compound treated groups at the dose of 50 ul/25 ml oilve oil/kg body weight. The norm group was administered olive oil only at the same dose. 24 Hours after the CCl4 administration, blood samples were collected from the orbital sinuses of the animals and the sera were obtained by centrifugation. The serum ALT activities were monitored and the hepatoprotective effect of the test compounds were calculated by the same method as described in experiment 1. The percentages were plotted against the corresponding doses of the test compounds to make dose-response curves, from which the 50% effective dose of test compound was estimated.

[3] = Acute toxicity of test compounds (oral LD50); settings: mouse, in vivo, male ICR mice, 0.2% CMC-Na suspension, dead mice counted for 14 days, read-out: LD50 of Test Compound (column head prints ED50)
Description: Each test compound was suspended in 0.2% CMC--Na solution in various concentrations to make test suspensions. The test suspensions were administered orally to male ICR mice (10 in each group) at various doses. The number of dead mice was counted for 14 days and the value of median lethal dose (LD50, g/kg) was calculated by the Hitchifield-Wilcoxon method.

SMILES | inhibition in vivo at 50 mg/kg [1] | ED50 [2] | LD50 at 336 h [3]
CC(C)OC(=O)C(C(=O)Nc1nc(-c2ccccc2)cs1)=C1SCS1 [Example 27, Isopropyl 2-(1,3-dithietan-2-ylidene)-2-[N-(4-phenyl-2-thiazolyl)carbamoyl]acetate] | 11% | > 50 mg/kg | –
CC(C)OC(=O)C(C(=O)Nc1ccc(C(F)(F)F)cc1)=C1SCS1 [Example 19, Isopropyl 2-(1,3-dithietan-2-ylidene)-2-[N-(4-trifluoromethylphenyl)carbamoyl]acetate] | 100% | 6.25 mg/kg | –
CC(C)OC(=O)C(C(=O)Nc1ccccn1)=C1SCCS1 [Example 32, Isopropyl 2-(1,3-dithiolan-2-ylidene)-2-[N-(2-pyridyl)carbamoyl]acetate] | 85% | < 50 mg/kg | –
CC(C)OC(=O)C(C(=O)Nc1ccccn1)=C1SCS1 [Example 29, Isopropyl 2-(1,3-dithietan-2-ylidene)-2-[N-(2-pyridyl)carbamoyl]acetate] | 100% | 10 mg/kg | > 5000 mg/kg
CC(C)OC(=O)C(C(=O)Nc1nccs1)=C1SCS1 [Example 22, Isopropyl 2-(1,3-dithietan-2-ylidene)-2-[N-(2-thiazolyl)carbamoyl]acetate] | 100% | < 6.25 mg/kg | > 5000 mg/kg
CC(C)OC(=O)C(C(=O)Nc1ccc(C(F)(F)F)cc1)=C1SCCS1 [Example 21, Isopropyl 2-(1,3-dithiolan-2-ylidene)-2-[N-(4-trifluoromethylphenyl)carbamoyl]acetate] | 98% | < 50 mg/kg | –
Cc1csc(NC(=O)C(C(=O)OC(C)C)=C2SCS2)n1 [Example 24, Isopropyl 2-(1,3-dithietan-2-ylidene)-2-[N-(4-methyl-2-thiazolyl)carbamoyl]acetate] | 100% | < 6.25 mg/kg | > 5000 mg/kg
CC(C)OC(=O)C(C(=O)Nc1nncs1)=C1SCS1 [Example 28, Isopropyl 2-(1,3-dithietan-2-ylidene)-2-[N-(1,3,4-thiadiazol-2-yl)carbamoyl]acetate] | 100% | < 6.25 mg/kg | > 5000 mg/kg
CC(C)OC(=O)C(C(N)=O)=C1SCS1 [Example 13, Isopropyl 2-(1,3-dithietan-2-ylidene)-2-carbamoylacetate] | 28% | > 50 mg/kg | < 5000 mg/kg
Cc1csc(NC(=O)C(C(=O)OC(C)C)=C2SCCS2)n1 [Example 26, Isopropyl 2-(1,3-dithiolan-2-ylidene)-2-[N-(4-methyl-2-thiazolyl)carbamoyl]acetate] | 98% | < 50 mg/kg | –
CC(C)OC(=O)C(C(=O)NCc1ccccc1)=C1SCS1 [Example 15, Isopropyl 2-(1,3-dithietan-2-ylidene)-2-(N-benzylcarbamoyl)acetate] | 97% | 10 mg/kg | –
CC(C)OC(=O)C(C(=O)Nc1ccccc1)=C1SCS1 [Example 18, Isopropyl 2-(1,3-dithietan-2-ylidene)-2-(N-phenylcarbamoyl)acetate] | 100% | 7 mg/kg | –
